Legend:
IFNGR1 protein = test: Western blot analysis of IFNGR1 protein; type: cell-based, human
Description: IFNGR1 protein levels increased by approximately 7 fold after 24 h and persisted to 48 h compared to DMSO-treated controls.
Comparison of our results with DIM to our studies with I3C (27) show some distinct differences in the activity of DIM and its in vivo precursor in their effects on IFNγ signaling. […] Similar effects of DIM and I3C were also observed on cell proliferation and cell cycling. […] Thus, a strong level of induction (about 5 fold) was seen after only 6 hours of exposure to DIM, and the maximum induction was attained by 24 hours of treatment with this diindole. In contrast, receptor expression was increased by only about 3 fold following 24 hours of treatment with I3C, and appeared to reach the maximum induction only after about 48 hours of exposure. […] Indeed, we have shown previously that DIM accumulates in the nucleus of MCF-7 cultured cells treated with I3C (28).

STAT1 = STAT1 phosphorylation (Tyr-701) by Western blot; type: cell-based, human; conditions: DIM 6 or 24 h, with or without 15 min IFNγ exposure
Text: To acsertain the role of GAS element activation in transcriptional activation by DIM, we examined the effect of this indole on downstream events in the GAS signaling pathway. For this purpose, the effects of DIM on phosphorylation of the signal transduction and activator of transcription factor 1 (STAT1), and the binding of the activated STAT1 dimer to the cognate GAS responsive element were examined. Phosphorylation of STAT1 by Janus-activated kinase (JAK) is the first step in IFNγ signaling following binding to IFNGR1. For these studies, cells were pretreated with DIM for 6 or 24 h followed by a 15 min. exposure to IFNγ. STAT1 phosphorylation levels in cell lysates of DIM-treated cells were compared to controls that received IFNγ but had not been treated with DIM. Phosphorylation was measured by Western blot analysis using an antibody specific to STAT1 phosphorylated on Tyr-701 residue.

MHC-I complex = test: Flow cytometry of cell surface MHC-I expression (FITC-conjugated HLA-ABC antibody); type: cell-based, human; conditions: no IFNγ
Description: Induced expression of the MHC-I complex is a well-established and important down-stream target of IFNγ-mediated signal transduction. To examine further the possible synergistic effects of DIM on a significant metabolic product of IFNγ signaling, we tested the effects of co-treatment with DIM on IFNγ induced expression of MHC-I complex in MCF-7 cells.
Flow cytometry analysis of cell surface MHC-I expression was conducted using FITC-conjugated HLA-ABC antibody. In an initial control experiment, cultured MCF-7 cells were pre-treated with 30 μM DIM for 48 hours and then with or without 10 ng/mL IFNγ for another 16 hours. […] In a subsequent experiment in which cells were treated with a range of IFNγ concentrations and analyzed with the anti-MHC-I antibody, a strong signal indicative of IFNγ-induced MHC-I expression was detectable at 0.1 ng/mL and appeared to plateau at 10 ng/mL. In cells treated with vehicle control only, MHC-I expression was not detected in greater than 99% of cells.
Exposure to DIM of cells treated with 10 ng/mL of IFNγ, about 95% of which expressed MHC-I, produced a strong time dependent increase in MFV from 76.04 to 131.41. […] As expected, addition of an IFNγ blocking antibody into the medium before the treatments abrogated the inducing effects of co-treatments of IFNγ and DIM on MHC-I expression, confirming the requirement of the cytokine for the observed effects.

[1] = system: IL-6, G-CSF, IL-12, TNF-α and IFNγ; test: Serum levels of cytokines in mice; type: in vivo
[2] = system: HLA-A, HLA-B, HLA-C, β-microtubulin, TAP1 and TAP2; test: RT-PCR of MHC-I components and transporters in MCF-7 cells; type: cell-based, human
Text: RT-PCR was used to examine the expression of the four major components of human MHC-I, including HLA-A, HLA-B, HLA-C, and β-microtubulin, as well as two important associated transporters, TAP1 and TAP2. […] As expected, the expressions of these genes were increased 2-8 fold by treatment with IFNγ.

IFNγ [3] = test: Sandwich ELISA of IFNγ in medium from confluent MCF-7 cultures; type: cell-based, human; conditions: vehicle control virtually undetectable
Description: (§1) Immune response activating effects of the DIM analogs are examined with cell-based assays for cytokine and cytokine receptor expression. […] We also used a sensitive sandwich ELISA assay to examine levels of IFNγ in medium from confluent cultures of MCF-7 cells that were treated for up to 3 days. DIM derivatives confirmed to have immune response activating activity in our reporter and ELISA assays are subsequently screened in a whole animal cytokine production and Y. enterocolitica infection studies, as described below in Examples VIII and IX.
Using a sensitive sandwich ELISA assay, we examined levels of IFNγ in medium from confluent cultures of MCF-7 cells that were treated with DIM for up to 3 days. […] Levels of IFNγ in the medium of cultured cells were increased following incubations for 1 and 3 days from virtually undetectable levels in the vehicle treated control to approximately 50±10 pg/mL and 80±30 pg/mL, respectively, for the indole treated cells.

MCF-7 cells = test: Cell proliferation over a 4-day treatment period; type: cell-based, human; conditions: 4-day treatment, heat-treated serum
Description: Functional consequences of the synergistic effects of DIM and IFNγ on gene expression were examined at the level of proliferation rates. Cell proliferation was measured over a 4-day treatment period with treatments with DIM, IFNγ, or both substances, and compared to a DMSO control. With heat-treated serum, IFNγ alone reduced cell proliferation by as much as 70% compared to controls. DIM treatments reduced proliferation by as much as 60%. […] These effects were accompanied by morphological changes characteristic of apoptosis.

IFNγ [4] = test: IFNγ mRNA expression in DIM-treated MCF-7 cells (cDNA microarray, Northern blot, quantitative RT-PCR); type: cell-based, human
Description: as §1
An initial cDNA gene expression microarray screen of human breast cancer MCF-7 cells treated with DIM, followed by confirmation of results using Northern blots and quantitative RT-PCR, established the transcriptional activation of IFNγ, IFNγ receptor (IFNGR1), oligoadenylate-synthase (OAS) family member protein 69 (p69-OAS), and interferon-inducible protein 56 (p56), a protein closely related to OAS. […] Maximum induction for IFNγ, IFNGR1, p69-OAS and p56 were 4.6, 3.8, 3.2 and 4.0 fold, respectively.

## c1ccc2c(Cc3c[nH]c4ccccc34)c[nH]c2c1 [DIM, 3,3′-Diindolylmethane]
IFNGR1 protein; DIM
  Maximum level of IFNGR1 protein induction: about 7 fold
  Time at which maximum IFNGR1 protein induction was attained: ≤ 24 h
IFNGR1 protein; after 6 hours of exposure to DIM
  IFNGR1 protein induction: about 5 fold
IFNGR1 protein; after 24 h of DIM, persisted to 48 h
  IFNGR1 protein level increase compared to DMSO-treated controls: approximately 7 fold
STAT1
  STAT1 phosphorylation (Tyr-701): did not induce STAT1 phosphorylation
MHC-I complex
  Expression of the MHC-I complex, DIM treatment alone: no significant effect
[1]; intravenous administration
  Cytokine production, including IFNγ: elevated cytokine production
[1]; oral, 1-24 h after challenge
  Serum levels of cytokines: stimulated a time-dependent increase in serum levels of cytokines
[2]
  Expression levels of the six genes (MHC-I components, TAP1, TAP2) above vehicle/background: not significantly enhanced
IFNγ [3]; MCF-7, incubation 1 day
  Level of IFNγ in the medium of cultured cells: approximately 50±10 pg/mL
IFNγ [3]; MCF-7, incubation 3 days
  Level of IFNγ in the medium of cultured cells: ~80 ± 30 pg/mL
MCF-7 cells
  Reduction of cell proliferation compared to controls: ≤ 60%
IFNγ [4]; MCF-7 cells treated with DIM
  Maximum induction of IFNγ mRNA: 4.6 fold
  Treatment time at which IFNγ expression was fully induced: 6 h
IFNγ [4]; MCF-7 cells, 48 h
  IFNγ mRNA level following 48 h of DIM treatment: returned to near control levels

Reference: patent publication US20060100264A1, “3,3'-Diindolylmethane immune activating compositions” (priority 2004, published 2006)
